US12544375B2, “Small molecule therapeutic for parkinson's disease paired with a biomarker of therapeutic activity” (The Board of Trustees of the Leland Stanford Junior …, priority 2019, dated 2026)

Test system: iPSC-derived dopaminergic neurons from PD patients
Test: Antimycin A stress-induced neurodegeneration of iPSC-derived dopaminergic neurons (TH, PI staining)
Format: cell-based, human
Conditions: 5 μM for 30 hrs, 10 μM Antimycin A for 6 hrs, neurons from both PD patients
Description: FIG. 3A-FIG. 3D. Miro1 Reducer Rescues Parkinson's Neurodegeneration. (FIG. 3A) Fibroblasts were treated, lysed, and blotted as indicated. Band intensities are normalized to those of ATP5β from the same blots and compared to “Healthy-2, no treatment”. n=4. (FIG. 3B-FIG. 3C) iPSC-derived neurons were treated as indicated and immunostained with anti-TH (FIG. 3B) or stained with PI and Dapi (FIG. 3C). Both Antimycin A and Miro1 Reducer were dissolved in ethanol. Neurons were pretreated with Miro1 Reducer 24 hrs before the application of Antimycin A for another 6 hrs. The same volume of ethanol was applied at the same time in negative controls. (FIG. 3B) The density of TH-positive neurons is calculated in each condition under 20×, from 10 fields each experiment, 3-4 experiments. […] (FIG. 3C) The percentage of PI-positive cells out of total cells (Dapi-positive) is calculated. n=20 fields each experiment, 4 experiments. For (FIG. 3B-FIG. 3C), comparisons with “Wild-type-I, no treatment” except otherwise indicated. […] Graphs of Mean±S.E.M show the percent of time each mitochondrion is in motion (red and blue, compared to “Wild-type-I, before treatment”), and the mitochondrial intensity normalized to that of the same axonal region at “0 min” and expressed as a fraction of the mean of “Wild-type-I, 0 min”. n=33-77 mitochondria from 5-8 axons from 5-8 separate transfections. […]

How did the “stress-induced neurodegeneration of dopaminergic neurons” value turn out when `O=C(Nc1ccc(Nc2cc(-n3ccnc3)ncn2)cc1)Nc1cccc(F)c1` [Miro1 Reducer] was run?
The value was “completely rescued”.
